From patent publication US20200009168A1, “MICROBIOME REGULATORS AND RELATED USES THEREOF” (KALEIDO BIOSCIENCES, INC., priority 2015, published 2020)

Tests used:
Assay type in all cases: cell-based
[1] = tested on: Bifidobacterium longum ATCC 15707 "BLO.16"; experiment: Sugar-supported growth of commensal bacteria, BLO.16; details: 0.5% w/v sugar, 37° C., 18-24 hours, anaerobic; OD600 divided by OD600 with 0.5% w/v dextrose
Protocol: (§1) An in vitro assay was performed to assess the ability of various bacterial strains, including commensals of the gastrointestinal tract, to utilize different sugars as growth substrates. This assay was designed to assess the ability of selected natural monosaccharides, disaccharides and synthetic sugars to promote the growth of microbiota associated with a healthy state. Bacterial strains were handled at all steps in an anaerobic chamber (AS-580, Anaerobe Systems) featuring a palladium catalyst. The chamber was initially made anaerobic by purging with an anaerobic gas mixture of 5% hydrogen, 5% carbon dioxide and 90% nitrogen and subsequently maintained in an anaerobic state using this same anaerobic gas mixture. Anaerobicity of the chamber was confirmed daily using Oxoid anaerobic indicator strips that change color in the presence of oxygen. All culture media, assay plates, other reagents and plastic consumables were pre-reduced in the anaerobic chamber for 24-48 hours prior to contact with bacteria. Sugars were prepared at 5% w/v in water, filter-sterilized and added to Costar 3370 assay plates for a final concentration of 0.5% w/v in the assay, with each microbiome regulator assayed in two non-adjacent wells and dextrose and water supplied as positive and negative controls.
(§2) Bacterial isolates were obtained from the American Type Culture Collection (ATCC) and Leibniz Institute DSMZ-German Institute of Microorganisms and Cell Cultures (DSMZ). Cultures of the Bacteroidetes Bacteroides caccae ATCC 43185 “BCA.26”, Bacteroides thetaiotaomicron ATCC 29741 “BTH.8”, Bacteroides cellulosilyticus DSM 14838 “BCE.71”, Parabacteroides distasonis ATCC 8503 “PDI.6” and Prevotella copri DSM 18205 “PCO.72”; the Clostridiales Clostridium scindens ATCC 35704 “CSC.32”, Dorea formicigenerans ATCC 27755 “DFO.36” and Ruminococcus obeum ATCC 29714 “ROB.74”; and the Bifidobacteria Bifidobacterium longum ATCC 15707 “BLO.16” and Bifidobacterium longum DSM 20088 “BLO.83”, were grown anaerobically in Chopped Meat Glucose broth (CMG, Anaerobe Systems), a pre-reduced enriched medium including lean ground beef, enzymatic digest of casein, yeast extract, potassium phosphate, dextrose, cysteine, hemin and Vitamin K1, for 18-48 hours at 37° C. Inocula were prepared by determining the optical density of each culture at […] (OD600) in a Costar 3370 polystyrene 96-well flat-bottom assay plate using a Biotek Synergy 2 plate reader with Gen5 2.0 All-In-One Microplate Reader Software according to manufacturer's protocol, and diluting the cells to OD600 0.01 final in defined and semi-defined media that were prepared without sugars. D. formicigenerans, P. distasonis and B. longum isolates were tested in 900 mg/L sodium chloride, 26 mg/L calcium chloride dihydrate, 20 mg/L magnesium chloride hexahydrate, 10 mg/L manganese chloride tetrahydrate, 40 mg/L ammonium sulfate, 4 mg/L iron sulfate heptahydrate, 1 mg/L cobalt chloride hexahydrate, 300 mg/L potassium phosphate dibasic, 1.5 g/L sodium phosphate dibasic, 5 g/L sodium bicarbonate, 0.125 mg/L biotin, 1 mg/L pyridoxine, […], 75 mg/L histidine, 75 mg/L glycine, 75 mg/L tryptophan, 150 mg/L arginine, 150 mg/L methionine, 150 mg/L threonine, 225 mg/L valine, 225 mg/L isoleucine, 300 mg/L leucine, 400 mg/L cysteine, and 450 mg/L proline (Theriot C M et al. Nat Commun. 2014; 5:3114), supplemented with 0-3.5% (v/v) CMG. B. thetaiotaomicron, B. caccae and B. cellulosyliticus were tested in 100 mM potassium phosphate buffer (pH 7.2), 15 mM sodium chloride, 8.5 mM ammonium sulfate, 4 mM L-cysteine, 1.9 μM hematin, 200 μM L-histidine, 100 μM magnesium chloride, 1.4 μM iron sulfate heptahydrate, 50 μM calcium chloride, 1 μg/mL vitamin K3 and 5 ng/mL vitamin B12 (Martens E C et al. Cell Host & Microbe 2008; 4, 447-457). […]

[2] = tested on: Dorea formicigenerans ATCC 27755 "DFO.36"; experiment: Sugar-supported growth of commensal bacteria, DFO.36; details: 0.5% w/v sugar, 37° C., 18-24 hours, anaerobic; OD600 divided by OD600 with 0.5% w/v dextrose
Protocol: as §1, §2

[3] = tested on: Parabacteroides distasonis ATCC 8503 "PDI.6"; experiment: Sugar-supported growth of commensal bacteria, PDI.6; details: 0.5% w/v sugar, 37° C., 18-24 hours, anaerobic; OD600 divided by OD600 with 0.5% w/v dextrose
Protocol: as §1, §2

panel of 10 commensals = experiment: Sugar-supported growth, whole panel of 10 commensals; details: 0.5% w/v sugar, summary in words
Protocol: as §1, §2

[4] = tested on: Prevotella copri DSM 18205 "PCO.72"; experiment: Sugar-supported growth of commensal bacteria, PCO.72; details: 0.5% w/v sugar, 37° C., 18-24 hours, anaerobic; OD600 divided by OD600 with 0.5% w/v dextrose
Protocol: as §1, §2

[5] = tested on: Ruminococcus obeum ATCC 29714 "ROB.74"; experiment: Sugar-supported growth of commensal bacteria, ROB.74; details: 0.5% w/v sugar, 37° C., 18-24 hours, anaerobic; OD600 divided by OD600 with 0.5% w/v dextrose
Protocol: as §1, §2

[6] = tested on: Bacteroides cellulosilyticus DSM 14838 "BCE.71"; experiment: Sugar-supported growth of commensal bacteria, BCE.71; details: 0.5% w/v sugar, 37° C., 18-24 hours, anaerobic; OD600 divided by OD600 with 0.5% w/v dextrose
Protocol: as §1, §2

[7] = tested on: Bacteroides caccae ATCC 43185 "BCA.26"; experiment: Sugar-supported growth of commensal bacteria, BCA.26; details: 0.5% w/v sugar, 37° C., 18-24 hours, anaerobic; OD600 divided by OD600 with 0.5% w/v dextrose
Protocol: as §1, §2

[8] = tested on: Clostridium scindens ATCC 35704 "CSC.32"; experiment: Sugar-supported growth of commensal bacteria, CSC.32; details: 0.5% w/v sugar, 37° C., 18-24 hours, anaerobic; OD600 divided by OD600 with 0.5% w/v dextrose
Protocol: as §1, §2

[9] = tested on: Bacteroides thetaiotaomicron ATCC 29741 "BTH.8"; experiment: Sugar-supported growth of commensal bacteria, BTH.8; details: 0.5% w/v sugar, 37° C., 18-24 hours, anaerobic; OD600 divided by OD600 with 0.5% w/v dextrose
Protocol: as §1, §2

[10] = tested on: Bifidobacterium longum DSM 20088 "BLO.83"; experiment: Sugar-supported growth of commensal bacteria, BLO.83; details: 0.5% w/v sugar, 37° C., 18-24 hours, anaerobic; OD600 divided by OD600 with 0.5% w/v dextrose
Protocol: as §1
Bacterial isolates were obtained from the American Type Culture Collection (ATCC) and Leibniz Institute DSMZ-German Institute of Microorganisms and Cell Cultures (DSMZ). Cultures of the Bacteroidetes Bacteroides caccae ATCC 43185 “BCA.26”, Bacteroides thetaiotaomicron ATCC 29741 “BTH.8”, Bacteroides cellulosilyticus DSM 14838 “BCE.71”, Parabacteroides distasonis ATCC 8503 “PDI.6” and Prevotella copri DSM 18205 “PCO.72”; the Clostridiales Clostridium scindens ATCC 35704 “CSC.32”, Dorea formicigenerans ATCC 27755 “DFO.36” and Ruminococcus obeum ATCC 29714 “ROB.74”; and the Bifidobacteria Bifidobacterium longum ATCC 15707 “BLO.16” and Bifidobacterium longum DSM 20088 “BLO.83”, were grown anaerobically in Chopped Meat Glucose broth (CMG, Anaerobe Systems), a pre-reduced enriched medium including lean ground beef, enzymatic digest of casein, yeast extract, potassium phosphate, dextrose, cysteine, hemin and Vitamin K1, for 18-48 hours at 37° C. Inocula were prepared by determining the optical density of each culture at […] (OD600) in a Costar 3370 polystyrene 96-well flat-bottom assay plate using a Biotek Synergy 2 plate reader with Gen5 2.0 All-In-One Microplate Reader Software according to manufacturer's protocol, and diluting the cells to OD600 0.01 final in defined and semi-defined media that were prepared without sugars. […]

Compound: O=C[C@H](O)[C@@H](O)[C@H](O)CO [D-xylose]
- Average Normalized Growth (NGV), BLO.16 [1]: ++ (0.6-1)
- Average Normalized Growth (NGV), DFO.36 [2]: − (<0.2)
- Average Normalized Growth (NGV), PDI.6 [3]: + (0.2-0.6)
- taxa or strains of the commensal panel whose growth was supported (panel of 10 commensals): supported some commensals from the taxa Bacteroidetes and Bifidobacteria
- Average Normalized Growth (NGV), PCO.72 [4]: ++ (0.6-1)
- Average Normalized Growth (NGV), ROB.74 [5]: − (<0.2)
- Average Normalized Growth (NGV), BCE.71 [6]: ++ (0.6-1)
- Average Normalized Growth (NGV), BCA.26 [7]: +++ (>1)
- Average Normalized Growth (NGV), CSC.32 [8]: − (<0.2)
- Average Normalized Growth (NGV), BTH.8 [9]: +++ (>1)

Compound: O=C[C@H](O)[C@@H](O)[C@@H](O)CO [L-arabinose]
- Average Normalized Growth (NGV), BLO.16 [1]: ++ (0.6-1)
- Average Normalized Growth (NGV), DFO.36 [2]: +++ (>1)
- Average Normalized Growth (NGV), PDI.6 [3]: − (<0.2)
- taxa or strains of the commensal panel whose growth was supported (panel of 10 commensals): supported some commensals from the taxa Bacteroidetes, Firmicutes, including Lachnospiraceae, and Bifidobacteria
- Average Normalized Growth (NGV), PCO.72 [4]: ++ (0.6-1)
- Average Normalized Growth (NGV), BLO.83 [10]: − (<0.2)
- Average Normalized Growth (NGV), BCE.71 [6]: ++ (0.6-1)
- Average Normalized Growth (NGV), BCA.26 [7]: +++ (>1)
- Average Normalized Growth (NGV), CSC.32 [8]: − (<0.2)
- Average Normalized Growth (NGV), BTH.8 [9]: +++ (>1)

Compound: C[C@H](O)[C@@H](O)[C@@H](O)[C@H](O)C=O [L-fucose]
- Average Normalized Growth (NGV), BLO.16 [1]: − (<0.2)
- Average Normalized Growth (NGV), DFO.36 [2]: − (<0.2)
- Average Normalized Growth (NGV), PDI.6 [3]: − (<0.2)
- taxa or strains of the commensal panel whose growth was supported (panel of 10 commensals): supported some commensals from the taxa Bacteroidetes and Firmicutes
- Average Normalized Growth (NGV), PCO.72 [4]: − (<0.2)
- Average Normalized Growth (NGV), ROB.74 [5]: ++ (0.6-1)
- Average Normalized Growth (NGV), BCE.71 [6]: + (0.2-0.6)
- Average Normalized Growth (NGV), BCA.26 [7]: +++ (>1)
- Average Normalized Growth (NGV), CSC.32 [8]: − (<0.2)
- Average Normalized Growth (NGV), BTH.8 [9]: + (0.2-0.6)

Compound: O=C[C@H](O)[C@H](O)[C@H](O)CO [ribose]
- Average Normalized Growth (NGV), BLO.16 [1]: − (<0.2)
- Average Normalized Growth (NGV), DFO.36 [2]: +++ (>1)
- Average Normalized Growth (NGV), PDI.6 [3]: +++ (>1)
- taxa or strains of the commensal panel whose growth was supported (panel of 10 commensals): supported some commensals from the taxa Bacteroidetes and Firmicutes
- Average Normalized Growth (NGV), PCO.72 [4]: − (<0.2)
- Average Normalized Growth (NGV), ROB.74 [5]: − (<0.2)
- Average Normalized Growth (NGV), BCE.71 [6]: + (0.2-0.6)
- Average Normalized Growth (NGV), BCA.26 [7]: − (<0.2)
- Average Normalized Growth (NGV), CSC.32 [8]: +++ (>1)
- Average Normalized Growth (NGV), BTH.8 [9]: − (<0.2)

Compound: OC[C@H]1O[C@H](O[C@]2(CCl)O[C@H](CCl)[C@@H](O)[C@@H]2O)[C@H](O)[C@@H](O)[C@H]1Cl [sucralose]
- taxa or strains of the commensal panel whose growth was supported (panel of 10 commensals): supported growth of PCO.72 alone among the panel of 10 commensals

Compound: OC[C@H]1O[C@@](CO)(O[C@H]2O[C@H](CO)[C@@H](O)[C@H](O)[C@H]2O)[C@@H](O)[C@@H]1O [sucrose]
- taxa or strains of the commensal panel whose growth was supported (panel of 10 commensals): supported some commensals from the taxa Bacteroidetes, Firmicutes, including Lachnospiraceae, and Bifidobacteria
